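Where inhibition never reached the appropriate level, the endpoint shown equals the highest concentration tested. Otherwise, values were interpolated linearly from a five-concentration, 48-hour dose response in 96-well plates. GI50 = concentration required for 50% inhibition of growth. TGI marks complete inhibition of growth.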
Key:
Experiment in all cases: DTP human tumour cell line panel, 48 h
786-0 renal = tested on: 786-0 renal
A498 renal = tested on: A498 renal
A549 NSCLC = tested on: A549 NSCLC
ACHN renal = tested on: ACHN renal
BT-549 breast = tested on: BT-549 breast
CAKI-1 renal = tested on: CAKI-1 renal
CCRF-CEM leukemia = tested on: CCRF-CEM leukemia
COLO 205 colon = tested on: COLO 205 colon
DU-145 prostate = tested on: DU-145 prostate
HCC-2998 colon = tested on: HCC-2998 colon
HCT-116 colon = tested on: HCT-116 colon
HCT-15 colon = tested on: HCT-15 colon
HL-60(TB) leukemia = tested on: HL-60(TB) leukemia
HOP-62 NSCLC = tested on: HOP-62 NSCLC
HOP-92 NSCLC = tested on: HOP-92 NSCLC
HS 578T breast = tested on: HS 578T breast
HT29 colon = tested on: HT29 colon
IGROV1 ovarian = tested on: IGROV1 ovarian
K-562 leukemia = tested on: K-562 leukemia
KM12 colon = tested on: KM12 colon
LOX IMVI melanoma = tested on: LOX IMVI melanoma
M14 melanoma = tested on: M14 melanoma
MALME-3M melanoma = tested on: MALME-3M melanoma
MCF7 breast = tested on: MCF7 breast
MDA-MB-231 breast = tested on: MDA-MB-231 breast
MDA-MB-435 = tested on: MDA-MB-435
MDA-MB-468 breast = tested on: MDA-MB-468 breast
MOLT-4 leukemia = tested on: MOLT-4 leukemia
NCI-H226 lung = tested on: NCI-H226 lung
NCI-H23 lung = tested on: NCI-H23 lung
NCI-H460 lung = tested on: NCI-H460 lung
NCI-H522 lung = tested on: NCI-H522 lung
OVCAR-3 ovarian = tested on: OVCAR-3 ovarian
OVCAR-4 ovarian = tested on: OVCAR-4 ovarian
OVCAR-5 ovarian = tested on: OVCAR-5 ovarian
OVCAR-8 ovarian = tested on: OVCAR-8 ovarian
PC-3 prostate = tested on: PC-3 prostate
RPMI-8226 leukemia = tested on: RPMI-8226 leukemia
RXF 393 renal = tested on: RXF 393 renal
SF-268 CNS = tested on: SF-268 CNS
SF-295 CNS = tested on: SF-295 CNS
SF-539 CNS = tested on: SF-539 CNS
SK-MEL-2 melanoma = tested on: SK-MEL-2 melanoma
SK-MEL-28 melanoma = tested on: SK-MEL-28 melanoma
SK-MEL-5 melanoma = tested on: SK-MEL-5 melanoma
SK-OV-3 ovarian = tested on: SK-OV-3 ovarian
SN12C renal = tested on: SN12C renal
SNB-19 CNS = tested on: SNB-19 CNS
SNB-75 CNS = tested on: SNB-75 CNS
SR leukemia = tested on: SR leukemia
SW-620 colon = tested on: SW-620 colon
T-47D breast = tested on: T-47D breast
TK-10 renal = tested on: TK-10 renal
U251 CNS = tested on: U251 CNS
UACC-257 melanoma = tested on: UACC-257 melanoma
UACC-62 melanoma = tested on: UACC-62 melanoma
UO-31 renal = tested on: UO-31 renal

O=C(Nc1ccc(I)cc1F)c1cc(-c2ccc(F)cc2F)ccc1O
GI50 (786-0 renal): 3.06 µM
TGI (786-0 renal): 9.11 µM
GI50 (A498 renal): 2.54 µM
TGI (A498 renal): 7.14 µM
GI50 (A549 NSCLC): 3.09 µM
TGI (A549 NSCLC): 47.4 µM
GI50 (ACHN renal): 3.06 µM
TGI (ACHN renal): 11.1 µM
GI50 (BT-549 breast): 2.36 µM
TGI (BT-549 breast): 6.08 µM
GI50 (CAKI-1 renal): 1.71 µM
TGI (CAKI-1 renal): 4.83 µM
GI50 (CCRF-CEM leukemia): 3.31 µM
TGI (CCRF-CEM leukemia): 17 µM
GI50 (COLO 205 colon): 1.91 µM
TGI (COLO 205 colon): 4.13 µM
GI50 (DU-145 prostate): 3.68 µM
TGI (DU-145 prostate): > 100 µM
GI50 (HCC-2998 colon): 3.12 µM
TGI (HCC-2998 colon): 26.5 µM
GI50 (HCT-116 colon): 2.8 µM
TGI (HCT-116 colon): 8.81 µM
GI50 (HCT-15 colon): 3.07 µM
TGI (HCT-15 colon): 28.8 µM
GI50 (HL-60(TB) leukemia): 1.8 µM
TGI (HL-60(TB) leukemia): 5.66 µM
GI50 (HOP-62 NSCLC): 1.97 µM
TGI (HOP-62 NSCLC): 4.91 µM
GI50 (HOP-92 NSCLC): 2.42 µM
TGI (HOP-92 NSCLC): 5.93 µM
GI50 (HS 578T breast): 2.58 µM
TGI (HS 578T breast): 7.38 µM
GI50 (HT29 colon): 3.77 µM
TGI (HT29 colon): > 100 µM
GI50 (IGROV1 ovarian): 4.65 µM
TGI (IGROV1 ovarian): > 100 µM
GI50 (K-562 leukemia): 2.77 µM
TGI (K-562 leukemia): 11 µM
GI50 (KM12 colon): 2.78 µM
TGI (KM12 colon): 8.1 µM
GI50 (LOX IMVI melanoma): 3.21 µM
TGI (LOX IMVI melanoma): 10.9 µM
GI50 (M14 melanoma): 2.05 µM
TGI (M14 melanoma): 5.48 µM
GI50 (MALME-3M melanoma): 2.98 µM
TGI (MALME-3M melanoma): 7.93 µM
GI50 (MCF7 breast): 2.7 µM
TGI (MCF7 breast): 11 µM
GI50 (MDA-MB-231 breast): 1.88 µM
TGI (MDA-MB-231 breast): 4.31 µM
GI50 (MDA-MB-435): 2.59 µM
TGI (MDA-MB-435): 7.58 µM
GI50 (MDA-MB-468 breast): 2.2 µM
TGI (MDA-MB-468 breast): 5.76 µM
GI50 (MOLT-4 leukemia): 2.58 µM
TGI (MOLT-4 leukemia): 9.32 µM
GI50 (NCI-H226 lung): 2.21 µM
TGI (NCI-H226 lung): 6.3 µM
GI50 (NCI-H23 lung): 2.14 µM
TGI (NCI-H23 lung): 6.04 µM
GI50 (NCI-H460 lung): 2.78 µM
TGI (NCI-H460 lung): 8.42 µM
GI50 (NCI-H522 lung): 2.71 µM
TGI (NCI-H522 lung): 8.62 µM
GI50 (OVCAR-3 ovarian): 3.04 µM
TGI (OVCAR-3 ovarian): 9.16 µM
GI50 (OVCAR-4 ovarian): 3.16 µM
TGI (OVCAR-4 ovarian): 27.1 µM
GI50 (OVCAR-5 ovarian): 6.63 µM
TGI (OVCAR-5 ovarian): > 100 µM
GI50 (OVCAR-8 ovarian): 3.17 µM
TGI (OVCAR-8 ovarian): 32.9 µM
GI50 (PC-3 prostate): 3.09 µM
TGI (PC-3 prostate): > 100 µM
GI50 (RPMI-8226 leukemia): 2.1 µM
TGI (RPMI-8226 leukemia): 5.67 µM
GI50 (RXF 393 renal): 1.88 µM
TGI (RXF 393 renal): 5.45 µM
GI50 (SF-268 CNS): 3.1 µM
TGI (SF-268 CNS): > 100 µM
GI50 (SF-295 CNS): 2.12 µM
TGI (SF-295 CNS): 4.91 µM
GI50 (SF-539 CNS): 3.2 µM
TGI (SF-539 CNS): 11.6 µM
GI50 (SK-MEL-2 melanoma): 1.79 µM
TGI (SK-MEL-2 melanoma): 4.16 µM
GI50 (SK-MEL-28 melanoma): 3.76 µM
TGI (SK-MEL-28 melanoma): > 100 µM
GI50 (SK-MEL-5 melanoma): 1.72 µM
TGI (SK-MEL-5 melanoma): 3.29 µM
GI50 (SK-OV-3 ovarian): 2.04 µM
TGI (SK-OV-3 ovarian): 5.55 µM
GI50 (SN12C renal): 2.34 µM
TGI (SN12C renal): 6.88 µM
GI50 (SNB-19 CNS): 3.38 µM
TGI (SNB-19 CNS): > 100 µM
GI50 (SNB-75 CNS): 1.49 µM
TGI (SNB-75 CNS): 3.92 µM
GI50 (SR leukemia): 2.49 µM
TGI (SR leukemia): 8.71 µM
GI50 (SW-620 colon): 3.31 µM
TGI (SW-620 colon): 13.6 µM
GI50 (T-47D breast): 2.12 µM
TGI (T-47D breast): 6.04 µM
GI50 (TK-10 renal): 3.96 µM
TGI (TK-10 renal): 11.1 µM
GI50 (U251 CNS): 2.31 µM
TGI (U251 CNS): 5.94 µM
GI50 (UACC-257 melanoma): 2.41 µM
TGI (UACC-257 melanoma): 7.15 µM
GI50 (UACC-62 melanoma): 2.32 µM
TGI (UACC-62 melanoma): 6.89 µM
GI50 (UO-31 renal): 2.44 µM
TGI (UO-31 renal): 9.57 µM

Reference: PubChem BioAssay (NCI)
